The results in this text go back to patent EP4755396A1, “TREATMENT OF P53 GENE MUTATION OR DEFECT NEGATIVE CANCER AND TUMOR PATIENTS” (Ascentawits Pharmaceuticals, Ltd., priority 2023, dated 2025).

Read-outs that look alike come from different tables or passages of the source.

One experiment deals with H460 P53 KO #1. Put plainly: In vitro cell proliferation inhibition under normoxia, p53 knockout cells. Type of experiment: cell-based, human. Here is the method: (§1) The p53 CRISPR/Cas9 KO plasmid (human) and p53 HDR plasmid (human) were purchased from Santa Cruz Company to construct H460 P53 KO cell lines, namely p53 knockout (KnockOut) H460 cell lines. Three groups of H460 P53 KO cell lines were constructed with numbers of H460 P53 KO # 1, H460 P53 KO # 7, and H460 P53 KO # 12.
(§2) After co-incubation for 15 minutes, they were added dropwise to the culture medium and mixed well.
(§3) After 48 h, 2 µg/mL puromycin was added for screening.
(§4) When the cell colonies grew to a sufficient size, single colonies were picked and cultured.
(§5) When the cell number reached a sufficient quantity, samples were collected for WB identification of the colonies.
(§6) H460 P53 KO cell lines, i.e. H460 P53 KO # 1, H460 P53 KO # 7, H460 P53 KO # 12 cell lines were used in experiments, respectively.
(§7) • 1) NCI-H460, NCI-H460 P53KO # 1 cell suspensions were added to a 96-well plate at 100 µL per well, with a cell density of 2000 /well. • 2) The cells were cultured overnight in an incubator at 37°C, 5% CO2. • 3) Compound Treatment
(§8) Monotherapy: After 24 hours of cell plating, 99.5 µL of growth medium was supplied to each well. Then each well was added with 0.5µL of test compounds at different concentrations, shaken gently to ensure even mixing, and then placed at 37°C, 5% CO2 in an incubator.
(§9) Combination therapy: After 24 hours of cell plating, 99 µL of medium was supplied to each well. Each well was added with 0.5µL of combined action compound, shaken gently to ensure even mixing, and then placed in an incubator for 2 hours. Then each well was added with 0.5µL of test compounds at different concentrations, shaken gently to ensure even mixing, and then placed at 37°C, 5% CO2 in an incubator.
(§10) 4) The cell plate was placed in the incubator for 72 hours.
(§11) 5) The cell plate to be tested was placed at room temperature to equilibrium for 30 minutes, and 100µL of medium was discarded per well.
(§12) 6) 25µL of CTG reagent was added to each well, placed at a fast shaker to shake for 2 minutes, and placed at room temperature away from light for 30 minutes.
(§13) 7) The chemiluminescence signal value was read using a multifunctional microplate reader with a reading time of 1000 ms.
(§14) 8) The ICso (half maximal inhibitory concentration) values were calculated using GraphPad Prism 5 software.

A further experiment has as its system H460 P53 KO #12. Described as above. The class given is cell-based, human. Here is the method:
as §1, §2, §3, §4, §5, §6

A further experiment concerns H460 P53 KO #7. The description is as above. Type of experiment: cell-based, human. Here is the method: as §1, §2, §3, §4, §5, §6
The next experiment has as its system H460 cells. The experiment can be described thus: In vitro cell proliferation inhibition under normoxia (96-well, CTG, 72 hours). The class given is cell-based, human. To be noted: for IC50 / inhibition at 0.0005 µM / inhibition at 0.0015 µM: Homo sapiens, NCI-H460; for IC50: read-out: IC50; for inhibition at 0.0005 µM: AST 0.5 nM; for inhibition at 0.0015 µM: AST 1.5 nM. As to the method:
Overview of the experimental process • 1) H460 cell suspension was added to a 96-well plate at 100 µL per well, with a cell density of 2000 /well. • 2) The cells were cultured overnight in an incubator at 37°C, 5% CO2. • 3) Compound Treatment
Monotherapy: After 24 hours of cell plating, each well was supplied with 99.5 µL of growth medium then added with 0.5µL of test compounds at different concentrations, shaken gently to ensure even mixing, and then placed at 37°C, 5% CO2 in an incubator.
Combination therapy: After 24 hours of cell plating, each well was supplied with 99 µL of growth medium then added with 0.5µL of the combined action compound Nutlin-3, shaken gently to ensure even mixing, and then placed in an incubator for 2 hours. Then each well was added with 0.5µL of test compounds at different concentrations, shaken gently to ensure even mixing, and then placed at 37°C, 5% CO2 in an incubator.
as §10, §11, §12, §13
8) IC50 was calculated with Graph Pad Prism 5 software.
(§15) • 1) H460 and HPAF-II cell suspensions were added to a 96-well plate at 100 µL per well, with a cell density of 2000 /well and 20000/well, respectively. • 2) The cells were cultured overnight in an incubator at 37°C, 5% CO2. • 3) Compound Treatment
(§16) Combination therapy: After 24 hours of cell plating, 99 µL of growth medium was supplied to each well. Each well was added with 0.5 µL of Nutlin-3 or RITA, shaken gently to ensure even mixing, and then placed in an incubator for 2 hours. Then each well was added with 0.5µL of test compounds at different concentrations, shaken gently to ensure even mixing, and then placed at 37°C, 5% CO2 in an incubator.
as §8
(§17) 7) The chemiluminescence signal value was read using a multifunctional microplate reader with a reading time of 1000 ms. The corresponding inhibition rate data were calculated.
as §7, §9, §14

Experiment [1] deals with HPAF-II cells. The experiment can be described thus: In vitro cell proliferation inhibition (96-well, CTG, 72 hours). Type of experiment: cell-based. To be noted: Homo sapiens, monotherapy, applicant's previous cancer cell proliferation inhibition test data.
Experiment [2] concerns HPAF-II cells. The description is as above. The class given is cell-based. The settings on record: for inhibition at 0.06 µM / inhibition at 0.2 µM / inhibition at 1.667 µM / inhibition at 5 µM: Homo sapiens, HPAF-II cells, 72 hours; for inhibition at 0.06 µM: AST 60 nM; for inhibition at 0.2 µM: AST 200 nM; for inhibition at 1.667 µM: AST 1667 nM; for inhibition at 5 µM: AST 5000 nM. Here is the method:
as §15, §16, §8, §10, §11, §12, §17

As usually defined, the IC50 is the concentration needed to halve the response being measured. Broadly, the inhibition is the drop in the measured response relative to a control, in per cent. `O=[N+]([O-])c1ccc(C(OP(=O)(N2CC2)N2CC2)C(F)(F)F)cc1Oc1ccc(-c2ccc(F)cc2)c(F)c1` (centres unmarked) [AST]: the IC50 was found to be 264 nM in the experiment on H460 P53 KO #1 (Homo sapiens, NCI-H460, H460 P53 KO # 1, normoxia, 72 hours, alone or with 3µM AST-3021 as labelled (Example 10)); 28 nM in the experiment with H460 P53 KO #12 (Homo sapiens, NCI-H460, H460 P53 KO # 12, normoxia, 72 hours, alone or with 3µM AST-3021 as labelled (Example 10)); 220 nM with H460 P53 KO #7 (Homo sapiens, NCI-H460, H460 P53 KO # 7, normoxia, 72 hours, alone or with 3µM AST-3021 as labelled (Example 10)); 2.55 nM in the experiment on H460 cells (H460 WT, normoxia, 72 hours, alone or with 3µM AST-3021 as labelled (Example 10)); 6.87 nM in the experiment with H460 cells (H460 cells, monotherapy, applicant's previous cancer cell proliferation inhibition test data); 329 nM with HPAF-II cells [1]. The “Ratio (monotherapy), knockout/wild” value is given as 103.53 in the experiment with H460 P53 KO #1 (IC50 ratio, H460 P53 KO # 1 versus H460 WT); 10.96 with H460 P53 KO #12 (IC50 ratio, H460 P53 KO # 12 versus H460 WT); 86.08 in the experiment with H460 P53 KO #7 (IC50 ratio, H460 P53 KO # 7 versus H460 WT). For the same compound, the “concentration required to achieve an inhibition rate of 11-12%” value in the experiment with H460 cells (AST monotherapy, p53 wild-type H460 cells) amounted to 1.5 nM. The inhibition at 0.0005 µM in the experiment with H460 cells (H460 cells, 72 hours, RITA 0.025 µM, AST + RITA 0.5+0.025, read-out: Inhibition rate result, experimental group 1) is -0.29%; in the experiment with H460 cells (H460 cells, 72 hours, RITA 0.05 µM, AST + RITA 0.5+0.05, read-out: Inhibition rate result, experimental group 2), -0.29%. The inhibition at 0.0015 µM with H460 cells (H460 cells, 72 hours, RITA 0.025 µM, AST + RITA 1.5+0.025, read-out: Inhibition rate result, experimental group 3) worked out at 12.2%; in the experiment on H460 cells (H460 cells, 72 hours, RITA 0.05 µM, AST + RITA 1.5+0.05, read-out: Inhibition rate result, experimental group 4) it was 12.2%. In addition, in the experiment with HPAF-II cells [2] (AST monotherapy, p53 mutant HPAF-II cells), the “concentration needed to achieve an inhibition rate of 11-12%” value is given as 60 nM. The inhibition at 0.06 µM in the experiment with HPAF-II cells [2] (RITA 2.5 µM, AST + RITA 60+2.5, read-out: Inhibition rate, experimental group 1) was 14.9%; with HPAF-II cells [2] (RITA 5 µM, AST + RITA 60+5, read-out: Inhibition rate, experimental group 2), 14.9%. For the same compound, the inhibition at 0.2 µM amounted to 11.8% with HPAF-II cells [2] (RITA 2.5 µM, AST + RITA 200+2.5, read-out: Inhibition rate, experimental group 3) and 11.8% in the experiment with HPAF-II cells [2] (RITA 5 µM, AST + RITA 200+5, read-out: Inhibition rate, experimental group 4). Besides, the inhibition at 1.667 µM in the experiment on HPAF-II cells [2] (RITA 2.5 µM, AST + RITA 1667+2.5, read-out: Inhibition rate, experimental group 5) came to 74.3%; in the experiment with HPAF-II cells [2] (RITA 5 µM, AST + RITA 1667+5, read-out: Inhibition rate, experimental group 6), 74.3%. In addition, the inhibition at 5 µM in the experiment on HPAF-II cells [2] (RITA 2.5 µM, AST + RITA 5000+2.5, read-out: Inhibition rate, experimental group 7) is 68.8%; in the experiment on HPAF-II cells [2] (RITA 5 µM, AST + RITA 5000+5, read-out: Inhibition rate, experimental group 8) it was 68.8%.
